According to BindingDB's records for doi:10.1007/s10822-022-00478-x (Roche Innovation Center Basel, F. Hoffmann-La Roche Ltd., 2022):
pIC50: −log10 of the molar value.

The molecules below were run against cAMP and cAMP-inhibited cGMP 3',5'-cyclic phosphodiesterase 10A (Homo sapiens, UniProt Q9Y233) (assay: PDE10A assay).
Chain of cAMP and cAMP-inhibited cGMP 3',5'-cyclic phosphodiesterase 10A (Q9Y233 as listed by the source): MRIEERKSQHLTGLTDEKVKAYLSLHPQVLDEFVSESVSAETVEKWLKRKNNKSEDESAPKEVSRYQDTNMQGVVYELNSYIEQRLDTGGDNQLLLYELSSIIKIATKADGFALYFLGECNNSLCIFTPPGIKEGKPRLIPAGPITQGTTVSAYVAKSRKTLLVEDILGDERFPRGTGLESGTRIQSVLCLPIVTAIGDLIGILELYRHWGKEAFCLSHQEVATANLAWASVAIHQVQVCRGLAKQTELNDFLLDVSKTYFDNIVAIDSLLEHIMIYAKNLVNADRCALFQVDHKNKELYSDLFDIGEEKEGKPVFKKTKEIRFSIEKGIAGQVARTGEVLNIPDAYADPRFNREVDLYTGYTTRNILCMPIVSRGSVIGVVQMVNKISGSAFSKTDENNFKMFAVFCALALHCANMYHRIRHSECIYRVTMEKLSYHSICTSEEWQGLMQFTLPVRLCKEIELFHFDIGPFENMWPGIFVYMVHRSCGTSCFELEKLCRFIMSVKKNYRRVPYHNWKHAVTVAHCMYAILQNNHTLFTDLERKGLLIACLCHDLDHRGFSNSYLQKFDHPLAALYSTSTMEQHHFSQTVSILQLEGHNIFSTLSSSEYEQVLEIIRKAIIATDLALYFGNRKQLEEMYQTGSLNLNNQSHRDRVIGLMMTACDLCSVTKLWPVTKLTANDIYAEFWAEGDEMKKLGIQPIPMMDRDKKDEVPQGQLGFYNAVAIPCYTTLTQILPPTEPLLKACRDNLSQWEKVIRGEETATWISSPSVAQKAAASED
In short: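 Scintillation proximity readout of [3H]cGMP hydrolysis (50 nM final substrate, 15 min) by 2 ng/well human PDE10A after 15 min compound preincubation at RT, pH 7.5 with MgCl2. Four-parameter logistic fit gave IC50, reported as pIC50.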
In the case of Cn1ncc(C(=O)N2CCC2)c1C(=O)Nc1ccn(C(F)F)n1 [Roche-Dataset for PDE10A, Compound 1100], the pIC50 was 6.12. With O=C(Nc1ccn2nc(-c3ccccc3)nc2c1)c1cnc(Cl)c(Cl)c1 [Roche-Dataset for PDE10A, Compound 518] the pIC50 was 5.99. In the case of CN(C)C(=O)c1cnn(C)c1C(=O)Nc1cc2nc(-c3ccccc3)nn2cn1 [Roche-Dataset for PDE10A, Compound 442], the pIC50 was 9.09. Cc1ncc(C)n2nc(CCc3nc(N4CC[C@@H](C)C4)nn3C)nc12 [Roche-Dataset for PDE10A, Compound 447] gave a pIC50 of 7.55. Work on O=C1NCc2ccc(NC(=O)c3nc(C4CC4)ccc3Nc3cncnc3)cc21 [Roche-Dataset for PDE10A, Compound 788] yielded a pIC50 of 7.70. With COc1ncc(C2CC2)nc1C(=O)Nc1cc(-c2ccccn2)nn1C [Roche-Dataset for PDE10A, Compound 776] the pIC50 was 5.78. Work on Cn1ncc(C(=O)N2CCC2)c1C(=O)Nc1ccn2nc(-c3cccnc3)nc2c1 [Roche-Dataset for PDE10A, Compound 281] yielded a pIC50 of 8.94. In the case of O=C(Nc1ccn2nc(-c3ccccc3)nc2c1)c1cc(Cl)nc(NC2CC2)c1 [Roche-Dataset for PDE10A, Compound 101], the pIC50 was 8.21. Cn1nc(N2CCCC2)nc1CCc1nc2c(F)cc(F)cn2n1 [Roche-Dataset for PDE10A, Compound 407] showed a pIC50 of 6.20. With Cc1nc2c(C)c(C)c(CCc3nc(-c4ccccc4)cn3C)nn2c1C [US10399985, Example 14] the pIC50 was 8.62. Work on CSc1nc2cc(NC(=O)c3c(C(=O)N4CCC4)cnn3C)ccc2s1 [Roche-Dataset for PDE10A, Compound 840] yielded a pIC50 of 6.48. Molecule CCCn1ccc(NC(=O)c2nc(C3CC3)ccc2Nc2cncnc2)n1 [Roche-Dataset for PDE10A, Compound 643] has a pIC50 of 7.85. O=C(Nc1ccc(N2CCCC2=O)cc1)c1nc(C2CC2)ccc1Nc1cncnc1 [Roche-Dataset for PDE10A, Compound 733] showed a pIC50 of 7.74. With Cc1c(Cl)cc(Cl)c2nc(CCc3nc4ccccc4n3C)nn12 [Roche-Dataset for PDE10A, Compound 497] the pIC50 was 7.21. O=C(Nc1ccccc1)c1cccc(NC(=O)c2nc(C3CC3)ccc2Nc2cncnc2)c1 [Roche-Dataset for PDE10A, Compound 556] showed a pIC50 of 8.17. With O=C1c2ccccc2C(=O)N1CCc1nc(-c2cccnc2)no1 [Roche-Dataset for PDE10A, Compound 579] the pIC50 was 4.79. Cc1nc(CCc2nc(-c3ccccc3)cn2C)nc2ccccc12 [Roche-Dataset for PDE10A, Compound 129] was tested, and the pIC50 was 8.28. With C/C(=C\c1nc2c(C)ncc(C)n2n1)c1nc(Br)nn1C [Roche-Dataset for PDE10A, Compound 1125] the pIC50 was 5.32. Cn1ncc(C(=O)N2CCC2)c1C(=O)Nc1cn(-c2ccc3ccccc3n2)cn1 [Roche-Dataset for PDE10A, Compound 137] showed a pIC50 of 9.15. Molecule COC[C@H]1CCCN1c1nc(CCc2nc3c(C)ncc(C)n3n2)n(Cc2ccc(OC)cc2)n1 [Roche-Dataset for PDE10A, Compound 38] has a pIC50 of 7.82. CCc1cnc(C)cc1NC(=O)c1ccc2cc(-c3ccccc3)nn2c1 [Roche-Dataset for PDE10A, Compound 331] was tested, and the pIC50 was 7.08. For CCc1nc2ccc(OCc3cccc(N4CCCC4)n3)nn2c1C [2-ethyl-3-methyl-6-((6-(pyrrolidin-1-yl)pyridin-2-yl)methoxy)imidazo[1,2-b]pyridazine], the pIC50 was 6.26. CS(=O)(=O)c1ccc(CNC(=O)c2nc(C3CC3)cnc2Nc2cncnc2)cc1 [Roche-Dataset for PDE10A, Compound 800] gave a pIC50 of 6.26. With CC(=O)c1cccc(NC(=O)c2nc(C3CC3)cnc2Nc2cncnc2)c1 [Roche-Dataset for PDE10A, Compound 957] the pIC50 was 7.72. Molecule Cn1c(Cl)nc(C(=O)N2CCC2)c1C(=O)Nc1ccn2nc(-c3ccccc3)nc2c1 [Roche-Dataset for PDE10A, Compound 115] has a pIC50 of 9.35. Molecule CN(C)C(=O)Cc1cccc(NC(=O)c2nc(C3CC3)cnc2Nc2cncnc2)c1 [Roche-Dataset for PDE10A, Compound 693] has a pIC50 of 7.01.
